Experimental data from EP1212335B1, “GLUCOPYRANOSIDES CONJUGATES OF 2-(4-HYDROXY-PHENYL)-1- 4-(2-AMIN-1-YL-ETHOXY)-BENZYL]-1H-INDOL-5-OLS” (Wyeth, priority 1999, dated 2001).

Molecular target: T1, estrogen receptor (Homo sapiens, UniProt P03372)
T1 construct: since the MCF-7 cells express estrogen receptors; endogenous in cells; host or cells: MCF-7 human mammary carcinoma cells, infected with adenovirus 5-ERE-tk-luciferase (reporter only)
T1 sequence (P03372 1-595): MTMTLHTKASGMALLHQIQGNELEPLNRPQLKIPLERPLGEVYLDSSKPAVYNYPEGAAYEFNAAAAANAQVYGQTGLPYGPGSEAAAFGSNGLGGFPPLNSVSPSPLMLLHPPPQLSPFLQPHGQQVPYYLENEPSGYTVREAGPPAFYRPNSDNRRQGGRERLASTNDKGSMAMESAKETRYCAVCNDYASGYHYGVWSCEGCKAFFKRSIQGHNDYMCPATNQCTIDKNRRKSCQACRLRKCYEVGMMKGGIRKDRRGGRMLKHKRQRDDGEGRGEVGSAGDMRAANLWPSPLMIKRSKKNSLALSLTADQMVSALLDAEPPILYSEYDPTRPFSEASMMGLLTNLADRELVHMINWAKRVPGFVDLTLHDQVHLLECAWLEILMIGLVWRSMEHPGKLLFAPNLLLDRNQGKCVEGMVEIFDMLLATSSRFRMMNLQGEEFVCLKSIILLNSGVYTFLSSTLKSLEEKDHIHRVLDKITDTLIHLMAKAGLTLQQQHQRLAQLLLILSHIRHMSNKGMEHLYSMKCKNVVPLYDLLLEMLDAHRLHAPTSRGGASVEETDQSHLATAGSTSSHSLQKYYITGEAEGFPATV
Test: Estrogen antagonist/agonist activity in MCF-7 cells infected with adenovirus 5-ERE-tk-luciferase (luciferase reporter)
Assay type: cell-based
Conditions: antagonist mode, co-dosed with 10 pM 17β-estradiol, 24 h treatment
Text: Estrogen antagonist activity was shown for representative compounds of this invention in a standard pharmacological test procedure using MCF-7 cells transfected with an estrogen receptor. When administered orally, the compounds of this invention act at least partially as prodrugs for the corresponding hydroxylated compounds disclosed in EP 802183. Accordingly, the compounds of this invention are tissue selective estrogens, meaning that in certain tissue containing estrogen receptors, the compounds will act as estrogen agonists, and in other tissue containing estrogen receptors, the compounds will act as antagonists. […] The cell lysates (20 uL) were transferred to a 96 well luminometer plate, and luciferase activity was measured in a MicroLumat LB 96 P luminometer (EG and G Bethold) using 100 uL/well of luciferase substrate (Promega Corporation). […] Following the injection of the substrate, luciferase activity was measured for 10 seconds after a 1 second delay. The data were transferred from the luminometer to a Macintosh personal computer and analyzed using the JMP software (SAS institute); this program subtracts the background reading from the luciferase measurement for each well and then determine the mean and standard deviation of each treatment. […]

Row | IC50 [nM] | SMILES
1 | 1100 | Cc1c(-c2ccc(OC3OC(C(=O)O)C(O)C(O)C3O)cc2)n(Cc2ccc(OCCN3CCCCCC3)cc2)c2ccc(O)cc12 (centres unmarked) [Compound 38, 1-[4-(2-Azepan-1-yl-ethoxy)-benzyl]-2-(4-hydroxy-phenyl)-3-methyl-1H-indol-5-ol 4-O-glucuronide]
2 | 210 | Cc1c(-c2ccc(O)cc2)n(Cc2ccc(OCCN3CCCCCC3)cc2)c2ccc(OC3OC(C(=O)O)C(O)C(O)C3O)cc12 (centres unmarked) [Compound 30, 1-[4-(2-Azepan-1-yl-ethoxy)-benzyl]-2-(4-hydroxy-phenyl)-3-methyl-1H-indol-5-ol 5-O-glucuronide]
